These results are taken from patent US20210338648A1, “METHODS AND COMPOSITIONS FOR REDUCING SERUM URIC ACID” (AstraZeneca AB, priority 2018, published 2021).

Series [1] is described as follows: Phase 2 crossover study: urinary excretion of uric acid (uUA). The series is classed as in vivo, human. The text has this: Thirty-six asymptomatic hyperuricemic patients aged 18 to 65 years (inclusive) were enrolled into this study at two study centers. Twenty-four patients were enrolled and completed the study. Due to inadequate urine sampling, 12 additional patients were included to ensure an adequate sample size (at least 20 evaluable patients) to evaluate the effects of intensive UA lowering with verinurad, febuxostat and dapagliflozin on urinary excretion of UA. With 24 completers available during the interim analysis, this will provide for a total sample size of 36 evaluable patients. Before any study specific assessments were performed, potential patients provided informed consent. Each patient underwent the below mentioned visits: • A Screening period of maximum 28 days; • Two treatment periods during which patients were resident in the Clinical Unit from Day −2 to Day 1 and from Day 6 to Day 8; and • A Follow-up Visit within 14 to 28 days after the first administration of Investigational Medicinal Product (IMP) in Treatment Period 2. […] Treatment Period 1 and Treatment Period 2 were separated by a washout period of 7 to 21 days. • 1.

Series [2] in a line: Phase 2 crossover study: serum uric acid (sUA) after 7 days of treatment. Type of series: in vivo, human. The note with it: dapagliflozin added to verinurad + febuxostat; D7. The text has this: (§1) Thirty-six asymptomatic hyperuricemic patients aged 18 to 65 years (inclusive) were enrolled into this study at two study centers. Twenty-four patients were enrolled and completed the study. Due to inadequate urine sampling, 12 additional patients were included to ensure an adequate sample size (at least 20 evaluable patients) to evaluate the effects of intensive UA lowering with verinurad, febuxostat and dapagliflozin on urinary excretion of UA. With 24 completers available during the interim analysis, this will provide for a total sample size of 36 evaluable patients.
• 1. […] At screening: One sUA assessment. […] Area under plasma concentration time curve over a dosing interval (24 hours) (AUCτ) assessment for verinurad and its main metabolites, febuxostat, and dapagliflozin [Time Frame: On Treatment Period 1 and 2: Day 7 (Pre-dose and 15 minutes, 30 minutes, 1 hour, 1.5, 2, 3, 4, 8, 12 and 24 hours post-dose)] • To assess AUCT after administration of single oral fixed dose of verinurad+febuxostat+dapagliflozin/placebo • 3. […]

The nature of series [3]: Phase 2 crossover study: safety and tolerability (adverse events, serum creatinine, serum sodium). The note with it: Grp1 vs Grp2. The series is classed as in vivo, human.
Description: as §1, with “patients. […] At screening: One sUA assessment. […] On Treatment Period 1 and 2: […] On Treatment Period 1 and 2: […] Systolic blood pressure [SBP] […] Diastolic blood pressure [DBP]” for “patients.”

The conditions of series [4]: co-administration, Day 7.
Description: This study was a randomized, placebo controlled, double-blind, 2-way crossover study conducted on asymptomatic hyperuricemic patients.
On Day −2 of Treatment period 1, patients were randomized (1:1) to 1 of 2 treatment sequences (AB or BA). […] On Day 1, after all dosing and all assessments were performed, patients received instruction to administer the IMP at home once daily in the morning from Day 2 to Day 6 and the IMP dispensed for home dosing. Patients returned to the Clinical Unit on Day 6 and were residential in the Clinical Unit from Day 6 to Day 8.

“Also recorded” adds a separate entry of the source.

In the case of `CCOc1ccc(Cc2cc([C@@H]3O[C@H](CO)[C@@H](O)[C@H](O)[C@H]3O)ccc2Cl)cc1` [dapagliflozin], the “peak uUA excretion (result in words)” value in series [1] (dapagliflozin 10 mg/day added to verinurad 9 mg/day + febuxostat 80 mg/day, D7) is on record as “no increase; also recorded: without an increase in uUA excretion”. Further, the “total 24 h uUA excretion (result in words)” value in series [1] (dapagliflozin added to verinurad + febuxostat vs placebo, 24 h urine, all subjects) was “no difference”. Also, the “sUA levels (result in words)” value in series [2] is recorded as “significantly reduced; also recorded: additional sUA lowering”. For the same compound, the “serum creatinine (sCr), between-group difference” value in series [3] was “without an increase in uUA excretion, or changes in sCr”. Also, in series [4], the “effect on febuxostat pharmacokinetics” value was “did not affect” and the “effect on verinurad pharmacokinetics” value is on record as “did not affect”.
